# Assay results published in PMC9482650, “Quantitative fragmentomics allow affinity mapping of interactomes” (Nature Communications, 2022).
# Ends that are not written are not given here. * marks the point of attachment. Biotin = O=C1N[C@H]2[C@H](CS[C@H]2CCCCC(=O)*)N1; ttds = NCCCOCCOCCOCCCNC(=O)CCC(=O)*
# Experiments:
# PDZ-proteins = test: Estimated PPI affinity, additive association constants of all PDZ sites; format: binding, human;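 further: calculated estimate, not directly measured: domain-motif affinities from holdup assays, association constants summed over all PDZ sites, one motif bound at a time, weak interactions ignored, giving a lower limit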
# Source text: We used the previously generated domain-motif interactome, consisting of the composite affinities (i.e., taken from the most reliable holdup method; see above) to estimate affinities of PPIs. We assumed that a multidomain PDZ-protein can only interact with a single PBM at the same time (Eq. (4)):4 PDZ+PBM⇌(PDZ−PBM)site1,or(PDZ−PBM)site2,or(PDZ−PBM)siten
# Using this approximation, as proposed by others before[45], the association constant of a multi-site interaction is the sum of the association constants of all sites (Eq. (5)):5 Ka,additive=[PDZ−PBM]site1+[PDZ−PBM]site2+…+[PDZ−PBM]siten/[PDZ]×[PBM]=∑Ka,site
# The contribution of unmeasurable weak interactions was also neglected in the calculations.
# [1] = tested on: Jurkat cell extract preys; test: PBM-AP-MS, PBM peptide baits; format: binding, human
# Experimental: HEK293T and HeLa cells were authenticated and found 100% identity to ATCC cat. CRL-3216 and ATCC cat. CCL-2, respectively. Jurkat and HaCat cell lines were not authenticated (original source: ECACC and Deutsches Krebsforschungszentrum DKFZ, respectively). HeLa cells were grown in DMEM (1 g/L glucose, Gibco) medium completed with 5% FCS and 40 μg/mL gentamicin, diluted every 3rd/4th day 1/10. HaCat cells were grown in DMEM (1 g/L glucose, Gibco) medium completed with 10% FCS and 40 μg/mL gentamicin, diluted every 3rd/4th day 1/4. Jurkat cells were grown in RPMI (Gibco) medium completed with 10% FCS and 40 μg/mL gentamicin, diluted every 3rd/4th day 1/12. All cells were kept at 37 °C and 5% CO2. For proteomics analyses cells were seeded on T-175 flasks. After they reached confluency, adherent cells were washed with PBS once and collected by scraping with ice-cold lysis buffer (Hepes-KOH pH 7.5 50 mM, NaCl 150 mM, Triton X-100 1%, complete EDTA-free protease inhibitor cocktail 1×, EDTA 2 mM, TCEP 5 mM, glycerol 10%). Jurkat cells were collected by 1000 g × centrifugation, washed once with PBS, then collected by 1000 g × 5 min centrifugation again and lysed in ice-cold lysis buffer. Lysates were sonicated 4 × 20 s with 1 s long pulses on ice, then incubated rotating at 4 °C for 30 min. Lysates were centrifuged at 12,000 rpm 4 °C for 20 min and supernatant was kept for further analysis. Concentration determination was carried out by standard Bradford method (Bio-Rad Protein Assay Dye Reagent #5000006) using BSA (MP BIomedicals #160069) as control on a Bio-Rad SmartSpec 3000 spectrophotometer instrument.
# For PBM-AP-MS experiments, 30 μl streptavidin resin was mixed with biotin or peptide at 50–60 μM concentration in 6–6.5 resin volume for 60 min to achieve resin saturation. For PDZ-AP-MS experiments, 30 μl streptavidin resin was mixed with biotinylated MBP or MBP-PDZ at 40-50 μM concentration in >1000× resin volume for 60 min to achieve resin saturation. After saturation, resins were washed a single time (ten resin volume, holdup buffer), and were depleted with biotin (1 mM biotin, 5–10 resin volume, 10 min). Finally, resins were washed two times. 0.5 ml 2 mg/ml cell lysate was added to the dry resin (1 mg total input) and were incubated at 4 °C for 2 h. Then, the beads were washed three times with 10 resin volume buffer containing: 50 mM TRIS pH 8.5, 150 mM NaCl, 1% TritonX-100, 10× complete EDTA-free protease inhibitor cocktail, 2 mM EDTA, 1 mM TCEP. Then, the beads were washed two times with ten resin volume buffer containing: 50 mM TRIS pH 8.5, 150 mM NaCl, 1 mM TCEP. Finally, captured protein was eluted from the resin in two steps and the eluted fractions were pooled. For each elution the beads were incubated for 30 min with three resin volume buffer containing: 20 mM TRIS pH8.5, 100 mM NaCl, 500 μM TCEP, 8 M Urea. Between each step, the beads were separated by mild centrifugation and the supernatant was removed by gentle pipetting.
# The samples were precipitated with TCA 20% overnight at 4 °C and centrifuged at 14,000 rpm for 10 min at 4 °C. The protein pellets were washed twice with 1 mL cold acetone and air dried. The protein extracts were solubilized in urea 8 M, reduced with 5 mM TCEP for 30 min, and alkylated with 10 mM iodoacetamide for 30 min in the dark. Double digestion was performed at 37 °C with 500 ng endoproteinase Lys-C for 4 h, followed by fourfold dilution and an overnight digestion with 500 ng trypsin. Peptide mixtures were then desalted on C18 spin-column and dried on Speed-Vacuum.
# Samples were analyzed using an Ultimate 3000 nano-RSLC (Thermo Scientific, San Jose California) coupled in line with a LTQ-Orbitrap ELITE mass spectrometer via a nano-electrospray ionization source (Thermo Scientific, San Jose California). […]
substance,measurement,setting,value
HPV30E6 ({Biotin-ttds}-RHTTSTETAV),final additive pKd,PDZ-proteins; PDZ-protein AHNAK,3.716
same,final additive pKd,PDZ-proteins; PDZ-protein CASK,3.5
same,final additive pKd,PDZ-proteins; PDZ-protein DLG1,5.729
same,final additive pKd,PDZ-proteins; PDZ-protein InaDl,4.166
same,final additive pKd,PDZ-proteins; PDZ-protein LAP2,4.458
same,final additive pKd,PDZ-proteins; PDZ-protein LIN7C,4.187
same,final additive pKd,PDZ-proteins; PDZ-protein LNX2,3.771
same,final additive pKd,PDZ-proteins; PDZ-protein MAGI3,5.357
same,final additive pKd,PDZ-proteins; PDZ-protein MPP5,3.5
same,final additive pKd,PDZ-proteins; PDZ-protein MPP6,3.5
same,final additive pKd,PDZ-proteins; PDZ-protein MPP7,3.5
same,final additive pKd,PDZ-proteins; PDZ-protein NHERF2,3.5
same,final additive pKd,PDZ-proteins; PDZ-protein PDLIM2,3.5
same,final additive pKd,PDZ-proteins; PDZ-protein PDLIM5,3.5
same,final additive pKd,PDZ-proteins; PDZ-protein PDLIM7,3.5
same,final additive pKd,PDZ-proteins; PDZ-protein PSMD9,3.5
same,final additive pKd,PDZ-proteins; PDZ-protein SCRIB,5.522
same,final additive pKd,PDZ-proteins; PDZ-protein SNTB1,5.102
same,final additive pKd,PDZ-proteins; PDZ-protein SNTB2,4.675
same,final additive pKd,PDZ-proteins; PDZ-protein SNX27,5.636
same,final additive pKd,PDZ-proteins; PDZ-protein SYNJ2BP,5.355
same,final additive pKd,PDZ-proteins; PDZ-protein TX1B3,4.653
same,Enrichment values compared to biotin controls,"[1]; prey APBA1, PBM peptide bait",2.1
same,Enrichment values compared to biotin controls,"[1]; prey DLG4, PBM peptide bait",4.1
same,Enrichment values compared to biotin controls,"[1]; prey DVL2, PBM peptide bait",0.9
same,Enrichment values compared to biotin controls,"[1]; prey GOPC, PBM peptide bait",1.2
same,Enrichment values compared to biotin controls,"[1]; prey InaDl, PBM peptide bait",0.6
same,Enrichment values compared to biotin controls,"[1]; prey LAP2, PBM peptide bait",2.7
same,Enrichment values compared to biotin controls,"[1]; prey LNX2, PBM peptide bait",0.543
same,Enrichment values compared to biotin controls,"[1]; prey MAGI3, PBM peptide bait",2.1
same,Enrichment values compared to biotin controls,"[1]; prey MPP1, PBM peptide bait",1.4
same,Enrichment values compared to biotin controls,"[1]; prey MPP5, PBM peptide bait",1.1
same,Enrichment values compared to biotin controls,"[1]; prey MPP6, PBM peptide bait",1.2
same,Enrichment values compared to biotin controls,"[1]; prey MPP7, PBM peptide bait",2.8
same,Enrichment values compared to biotin controls,"[1]; prey MYO18A, PBM peptide bait",1.1
same,Enrichment values compared to biotin controls,"[1]; prey PDLIM2, PBM peptide bait",1.5
same,Enrichment values compared to biotin controls,"[1]; prey PDLIM5, PBM peptide bait",0.9
same,Enrichment values compared to biotin controls,"[1]; prey PDLIM7, PBM peptide bait",1.1
same,Enrichment values compared to biotin controls,"[1]; prey PDZD11, PBM peptide bait",3.0
same,Enrichment values compared to biotin controls,"[1]; prey PSMD9, PBM peptide bait",0.7
same,Enrichment values compared to biotin controls,"[1]; prey SIPA1L1, PBM peptide bait",1.1
same,Enrichment values compared to biotin controls,"[1]; prey SIPA1L2, PBM peptide bait",0.65
same,Enrichment values compared to biotin controls,"[1]; prey SNTB1, PBM peptide bait",3.6
same,Enrichment values compared to biotin controls,"[1]; prey SNTB2, PBM peptide bait",1.0
same,Enrichment values compared to biotin controls,"[1]; prey SNX27, PBM peptide bait",14.6
same,Enrichment values compared to biotin controls,"[1]; prey SYNJ2BP, PBM peptide bait",1.5
same,Enrichment values compared to biotin controls,"[1]; prey TX1B3, PBM peptide bait",1.2
HPV18E6,final additive pKd,PDZ-proteins; PDZ-protein AHNAK,3.5
same,final additive pKd,PDZ-proteins; PDZ-protein CASK,3.5
same,final additive pKd,PDZ-proteins; PDZ-protein DLG1,5.948
same,final additive pKd,PDZ-proteins; PDZ-protein InaDl,3.7336
same,final additive pKd,PDZ-proteins; PDZ-protein LAP2,3.615
same,final additive pKd,PDZ-proteins; PDZ-protein LIN7C,4.171
same,final additive pKd,PDZ-proteins; PDZ-protein LNX2,3.17
same,final additive pKd,PDZ-proteins; PDZ-protein MAGI3,5.558
same,final additive pKd,PDZ-proteins; PDZ-protein MPP5,3.5
same,final additive pKd,PDZ-proteins; PDZ-protein MPP6,3.5
same,final additive pKd,PDZ-proteins; PDZ-protein MPP7,3.5
same,final additive pKd,PDZ-proteins; PDZ-protein NHERF2,3.5
same,final additive pKd,PDZ-proteins; PDZ-protein PDLIM2,3.5
same,final additive pKd,PDZ-proteins; PDZ-protein PDLIM5,3.5
same,final additive pKd,PDZ-proteins; PDZ-protein PDLIM7,3.5
same,final additive pKd,PDZ-proteins; PDZ-protein PSMD9,3.5
same,final additive pKd,PDZ-proteins; PDZ-protein SCRIB,5.064
same,final additive pKd,PDZ-proteins; PDZ-protein SNTB1,5.229
same,final additive pKd,PDZ-proteins; PDZ-protein SNTB2,4.58
same,final additive pKd,PDZ-proteins; PDZ-protein SNX27,4.554
same,final additive pKd,PDZ-proteins; PDZ-protein SYNJ2BP,5.349
same,final additive pKd,PDZ-proteins; PDZ-protein TX1B3,4.665
same,Enrichment values compared to biotin controls,"[1]; prey APBA1, PBM peptide bait",5.1
same,Enrichment values compared to biotin controls,"[1]; prey DLG4, PBM peptide bait",3.2
same,Enrichment values compared to biotin controls,"[1]; prey DVL2, PBM peptide bait",1.0
same,Enrichment values compared to biotin controls,"[1]; prey GOPC, PBM peptide bait",15.5
same,Enrichment values compared to biotin controls,"[1]; prey InaDl, PBM peptide bait",0.8
same,Enrichment values compared to biotin controls,"[1]; prey LAP2, PBM peptide bait",2.3
same,Enrichment values compared to biotin controls,"[1]; prey LNX2, PBM peptide bait",1.0
same,Enrichment values compared to biotin controls,"[1]; prey MAGI3, PBM peptide bait",5.4
same,Enrichment values compared to biotin controls,"[1]; prey MPP1, PBM peptide bait",0.547
same,Enrichment values compared to biotin controls,"[1]; prey MPP5, PBM peptide bait",3.3
same,Enrichment values compared to biotin controls,"[1]; prey MPP6, PBM peptide bait",2.5
same,Enrichment values compared to biotin controls,"[1]; prey MPP7, PBM peptide bait",4.4
same,Enrichment values compared to biotin controls,"[1]; prey MYO18A, PBM peptide bait",0.4
same,Enrichment values compared to biotin controls,"[1]; prey PDLIM2, PBM peptide bait",1.5
same,Enrichment values compared to biotin controls,"[1]; prey PDLIM5, PBM peptide bait",0.8
same,Enrichment values compared to biotin controls,"[1]; prey PDLIM7, PBM peptide bait",1.1
same,Enrichment values compared to biotin controls,"[1]; prey PDZD11, PBM peptide bait",1.0
same,Enrichment values compared to biotin controls,"[1]; prey PSMD9, PBM peptide bait",0.8
same,Enrichment values compared to biotin controls,"[1]; prey SIPA1L1, PBM peptide bait",1.2
same,Enrichment values compared to biotin controls,"[1]; prey SIPA1L2, PBM peptide bait",1.1
same,Enrichment values compared to biotin controls,"[1]; prey SNTB1, PBM peptide bait",6.6
same,Enrichment values compared to biotin controls,"[1]; prey SNTB2, PBM peptide bait",1.1
same,Enrichment values compared to biotin controls,"[1]; prey SNX27, PBM peptide bait",16.6
same,Enrichment values compared to biotin controls,"[1]; prey SYNJ2BP, PBM peptide bait",14.2
same,Enrichment values compared to biotin controls,"[1]; prey TX1B3, PBM peptide bait",7.1
